For orientation: GI50 means the concentration that inhibits growth by half.

SMILES strings stand for the structures. A value given as a limit tells only on which side of the number the result lay.

For one assay, the target named is T1, Ba/F3-KIF5B-RET cell (Homo sapiens, UniProt P07949).
T1 construct: fused on or other part: P33176 (Kinesin-1 heavy chain)
As to the kind of experiment: CellTiter-Glo luminescence assay for inhibitory activity against Ba/F3-KIF5B-RET cell. It is filed as cell-based. The settings on record: Ba/F3-KIF5B-RET cells, 72 h. From the text:
(c) In Vitro Screening Experiment—CellTiter-Glo Luminescence Assay for Testing the Inhibitory Activity of Compounds Against Ba/F3-KIF5B-RET Cell Experimental Procedure: 1. The mammalian cell expression vector containing human KIF5B-RET cDNA was introduced into Ba/F3 cells using the Neon® transfection system method, and the surviving clones screened by puromycin were subjected to cell growth inhibitory function experiments and Western blotting to verify cell lines with stable and high expression of RET. 2. […] 3. The test compound (5 mM stock) was diluted 2.5 folds to 2 mM with 100% dimethyl sulfoxide; and the compound was diluted into 10 concentrations at an equal ratio of 1:3 in a 384-well dilution plate. 4. […] 6. […] 7. By fitting the data with XLFit 5.0 based on the parameters formula, the IC50 value was calculated as: Y=Bottom+(Top−Bottom)/(1+10^((Log IC50−X)*HillSlope)).
(In general: In ATP-based viability assays light output follows the ATP content of the culture.)

Another assay has as its target VEGFR2 (Homo sapiens, UniProt P35968). Kind of assay: HTRF method for testing the inhibitory activity of compounds against VEGFR2. The format is biochemical. The note with it: IC50 by nonlinear regression, read-out: VEGFR2 kinase activity. As for the experimental part: (b) In Vitro Screening Experiment—HTRF Method for Testing the Inhibitory Activity of Compounds Against VEGFR2 Experimental Procedure: 1. […] The test compound (5 mM stock solution) was diluted 5 folds to 1 mM with 100% dimethyl sulfoxide; the compound was diluted into 10 concentrations at an equal ratio of 1:3 in a 384-well dilution plate. 3. […] 6. […] The reaction solution was centrifuged at 1000 g for 30 s, and then sealed, and incubated at room temperature for 40 min. 8. […] 10. […] 11. […] 12. IC50 was calculated with software GraphPad 6.0 by fitting inhibition values and logarithms of compound concentrations to a nonlinear regression (dose response−variable slope).
A general note: TR-FRET usually uses a lanthanide donor and a delayed reading to cut background.

The next assay addresses RET (Homo sapiens, UniProt P07949). Kind of assay: HTRF method for testing the inhibitory activity of compounds against RET. It is filed as biochemical. The settings on record: IC50 by nonlinear regression, read-out: RET kinase activity. How it is done: (a) In Vitro Screening Experiment-HTRF Method for Testing the Inhibitory Activity of Compounds Against RET Experimental Procedure: 1. […] 2. The test compound (5 mM stock solution) was diluted 5 folds to 1 mM with 100% dimethyl sulfoxide; the compound was diluted into 10 concentrations at an equal ratio of 1:3 in a 384-well dilution plate. 3. 0.2 μL of the serially diluted compound was added to a 384-well plate using an Echo 550 pipetting system, 2 replicate wells for each concentration, and the final concentration of dimethyl sulfoxide was 0.5% (v/v). […] 6. […] The reaction solution was centrifuged at 1000 g for 30 s, and then sealed, and incubated at room temperature for 30 min. 8. […] 10. […] 11. […] IC50 was calculated with software GraphPad 6.0 by fitting inhibition values and logarithms of compound concentrations to a nonlinear regression (dose response−variable slope).

VEGFR2, sequence (P35968 20-1356, species assumed): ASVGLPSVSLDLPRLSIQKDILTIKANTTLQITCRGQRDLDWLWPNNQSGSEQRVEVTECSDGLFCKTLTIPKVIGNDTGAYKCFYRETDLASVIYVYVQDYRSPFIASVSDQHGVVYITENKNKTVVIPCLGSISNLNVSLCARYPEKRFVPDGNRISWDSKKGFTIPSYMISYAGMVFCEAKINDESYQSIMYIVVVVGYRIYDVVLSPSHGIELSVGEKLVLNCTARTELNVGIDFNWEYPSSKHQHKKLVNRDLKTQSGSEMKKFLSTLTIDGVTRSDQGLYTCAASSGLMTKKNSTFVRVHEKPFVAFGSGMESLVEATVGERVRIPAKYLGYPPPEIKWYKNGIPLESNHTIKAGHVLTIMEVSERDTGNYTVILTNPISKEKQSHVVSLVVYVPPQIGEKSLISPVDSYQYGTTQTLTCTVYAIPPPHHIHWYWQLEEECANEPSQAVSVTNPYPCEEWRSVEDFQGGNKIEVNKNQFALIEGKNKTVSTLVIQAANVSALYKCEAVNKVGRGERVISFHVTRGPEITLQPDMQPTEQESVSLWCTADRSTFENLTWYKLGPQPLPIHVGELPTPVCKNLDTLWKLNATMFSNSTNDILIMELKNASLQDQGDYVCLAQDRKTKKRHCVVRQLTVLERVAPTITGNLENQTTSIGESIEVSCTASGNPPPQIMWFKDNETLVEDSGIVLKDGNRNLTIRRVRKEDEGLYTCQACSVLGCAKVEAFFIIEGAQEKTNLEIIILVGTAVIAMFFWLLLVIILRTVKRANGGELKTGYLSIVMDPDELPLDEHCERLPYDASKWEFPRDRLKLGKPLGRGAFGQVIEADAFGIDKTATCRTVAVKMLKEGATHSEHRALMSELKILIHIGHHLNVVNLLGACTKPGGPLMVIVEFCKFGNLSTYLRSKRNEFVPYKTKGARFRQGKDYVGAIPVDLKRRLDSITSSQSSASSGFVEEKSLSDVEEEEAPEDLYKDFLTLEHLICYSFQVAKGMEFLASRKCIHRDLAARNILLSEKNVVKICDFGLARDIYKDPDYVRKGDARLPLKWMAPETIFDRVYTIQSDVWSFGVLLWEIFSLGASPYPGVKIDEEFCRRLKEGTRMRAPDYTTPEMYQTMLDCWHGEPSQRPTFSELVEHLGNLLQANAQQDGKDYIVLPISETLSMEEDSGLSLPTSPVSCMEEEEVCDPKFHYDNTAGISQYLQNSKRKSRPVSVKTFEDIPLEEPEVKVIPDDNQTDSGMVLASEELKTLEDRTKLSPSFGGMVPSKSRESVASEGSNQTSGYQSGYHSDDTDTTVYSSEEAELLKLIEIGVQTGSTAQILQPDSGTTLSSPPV
T1 sequence (P07949 whole entry, change not shown, the tested form may be a part): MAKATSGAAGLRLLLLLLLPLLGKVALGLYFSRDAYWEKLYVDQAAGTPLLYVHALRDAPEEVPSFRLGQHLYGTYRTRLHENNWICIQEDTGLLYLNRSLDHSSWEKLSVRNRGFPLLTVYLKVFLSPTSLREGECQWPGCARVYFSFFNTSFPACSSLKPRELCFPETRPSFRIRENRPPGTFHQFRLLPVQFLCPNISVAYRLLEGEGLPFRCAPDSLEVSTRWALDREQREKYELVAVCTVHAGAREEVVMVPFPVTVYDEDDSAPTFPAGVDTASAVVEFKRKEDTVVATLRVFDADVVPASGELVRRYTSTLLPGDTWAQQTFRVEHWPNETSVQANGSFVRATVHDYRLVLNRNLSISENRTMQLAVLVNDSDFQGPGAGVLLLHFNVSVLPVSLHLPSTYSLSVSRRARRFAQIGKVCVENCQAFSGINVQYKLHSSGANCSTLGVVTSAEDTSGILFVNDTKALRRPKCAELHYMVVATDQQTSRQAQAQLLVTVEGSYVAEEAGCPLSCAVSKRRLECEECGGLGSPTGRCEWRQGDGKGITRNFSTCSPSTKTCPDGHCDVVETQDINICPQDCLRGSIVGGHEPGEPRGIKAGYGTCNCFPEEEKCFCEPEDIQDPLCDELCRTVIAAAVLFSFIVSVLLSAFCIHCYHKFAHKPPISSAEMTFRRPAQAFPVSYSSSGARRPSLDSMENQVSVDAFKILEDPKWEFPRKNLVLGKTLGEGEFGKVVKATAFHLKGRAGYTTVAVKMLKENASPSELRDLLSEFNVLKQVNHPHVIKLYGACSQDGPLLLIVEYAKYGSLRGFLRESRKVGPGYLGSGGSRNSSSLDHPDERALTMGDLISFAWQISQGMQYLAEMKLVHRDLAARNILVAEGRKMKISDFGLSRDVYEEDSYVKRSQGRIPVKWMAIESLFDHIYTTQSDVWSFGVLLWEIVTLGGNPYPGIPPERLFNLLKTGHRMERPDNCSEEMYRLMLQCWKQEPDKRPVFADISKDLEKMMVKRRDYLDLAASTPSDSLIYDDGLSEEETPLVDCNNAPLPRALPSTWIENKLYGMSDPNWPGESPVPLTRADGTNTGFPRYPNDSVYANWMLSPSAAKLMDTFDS
RET, sequence (P07949 29-1114): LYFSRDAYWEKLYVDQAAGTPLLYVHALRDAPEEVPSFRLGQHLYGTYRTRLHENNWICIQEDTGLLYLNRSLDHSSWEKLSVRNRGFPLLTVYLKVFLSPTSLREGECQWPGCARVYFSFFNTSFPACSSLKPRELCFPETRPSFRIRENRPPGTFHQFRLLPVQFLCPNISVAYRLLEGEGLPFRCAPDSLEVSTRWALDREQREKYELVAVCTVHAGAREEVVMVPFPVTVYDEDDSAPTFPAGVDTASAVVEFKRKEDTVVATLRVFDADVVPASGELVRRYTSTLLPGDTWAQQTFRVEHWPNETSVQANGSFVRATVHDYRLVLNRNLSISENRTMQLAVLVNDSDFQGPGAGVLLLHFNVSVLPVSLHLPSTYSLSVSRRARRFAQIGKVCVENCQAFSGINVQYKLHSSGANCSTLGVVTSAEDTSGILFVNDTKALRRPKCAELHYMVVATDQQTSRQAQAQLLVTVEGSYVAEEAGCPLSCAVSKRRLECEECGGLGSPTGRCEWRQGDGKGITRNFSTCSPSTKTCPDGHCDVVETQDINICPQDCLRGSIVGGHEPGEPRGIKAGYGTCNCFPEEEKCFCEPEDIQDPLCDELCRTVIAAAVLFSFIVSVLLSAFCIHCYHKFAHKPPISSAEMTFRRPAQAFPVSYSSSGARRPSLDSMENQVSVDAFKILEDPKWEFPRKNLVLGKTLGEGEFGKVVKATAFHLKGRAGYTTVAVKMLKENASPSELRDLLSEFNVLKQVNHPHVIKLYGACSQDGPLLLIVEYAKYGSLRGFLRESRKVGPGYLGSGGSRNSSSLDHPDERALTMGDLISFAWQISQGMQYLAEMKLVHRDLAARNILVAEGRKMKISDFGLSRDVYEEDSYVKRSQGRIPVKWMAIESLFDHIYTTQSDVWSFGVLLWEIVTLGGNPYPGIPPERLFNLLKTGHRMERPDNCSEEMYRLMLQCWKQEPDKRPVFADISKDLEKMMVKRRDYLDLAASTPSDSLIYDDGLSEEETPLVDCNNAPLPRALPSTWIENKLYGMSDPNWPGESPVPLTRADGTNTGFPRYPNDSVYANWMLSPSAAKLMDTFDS

On to `CC(C)(O)COc1cc(-c2ccc(NCc3ccc(-n4cc(F)cn4)nc3)nc2)c2c(C#N)cnn2c1` [Compound 1, 4-(6-(((6-(4-fluoro-1H-pyrazol-1-yl)pyridin-3-yl)methyl)amino)pyridin-3-yl)-6-(2-hydroxy-2-methylpropoxy)pyrazolo[1,5-a]pyridine-3-carbonitrile], for which the GI50 on Ba/F3-KIF5B-RET cell was 13.9 nM. Moreover, the IC50 came out at 7.37 nM on VEGFR2 and 0.34 nM at RET.
The like results for `C[C@H](Nc1ccc(-c2cc(OCC(C)(C)O)cn3ncc(C#N)c23)cn1)c1ccc(-n2cc(F)cn2)nc1` [Compound 2, (S)-4-(6-((1-(6-(4-fluoro-1H-pyrazol-1-yl)pyridin-3-yl)ethyl)amino)pyridin-3-yl)-6-(2-hydroxy-2-methylpropoxy)pyrazolo[1,5-a]pyridine-3-carbonitrile] were, in that order, 10.7 nM, 3.51 nM and 0.46 nM.
For the compound `N#Cc1cnn2cc(OC[C@H]3CNCCO3)cc(-c3ccc(NCc4ccc(-n5cc(F)cn5)nc4)nc3)c12` [Compound 3], the GI50 at Ba/F3-KIF5B-RET cell came to 18 nM. Further, the IC50 at VEGFR2 is 1.08 nM; on RET it was 0.19 nM.
For `C[C@H](Nc1ccc(-c2cc(OC[C@H]3CNCCO3)cn3ncc(C#N)c23)cn1)c1ccc(-n2cc(F)cn2)nc1` [Compound 4], the GI50 at Ba/F3-KIF5B-RET cell worked out at 12 nM. The IC50 on VEGFR2 is 0.31 nM; on RET it was 0.18 nM.
The like results for `C[C@@H](Nc1ccc(-c2cc(OCC(C)(C)O)cn3ncc(C#N)c23)cn1)c1ccc(-n2cc(F)cn2)nc1` [Compound 5, (R)-4-(6-((1-(6-(4-fluoro-1H-pyrazol-1-yl)pyridin-3-yl)ethyl)amino)pyridin-3-yl)-6-(2-hydroxy-2-methylpropoxy)pyrazolo[1,5-a]pyridine-3-carbonitrile] were, in that order, 85.1 nM, 44.7 nM and 6.3 nM.
In the same order, the values of `CC(Nc1ccc(-c2cc(OCC(C)(C)O)cn3ncc(C#N)c23)cn1)c1ccc(-n2cc(F)cn2)nc1` (stereo not drawn) [Compound 6] are 50.5 nM, 11.8 nM and 1.2 nM.
The like results for `CC(C)(O)COc1cc(-c2ccc(NCc3ccc(-n4ccnc4)nc3)nc2)c2c(C#N)cnn2c1` [Compound 7] were, in that order, 203 nM, 72.1 nM and 7.14 nM.
The compound `CC(C)(O)COc1cc(-c2ccc(NCc3ccc(N4CCCC4=O)nc3)nc2)c2c(C#N)cnn2c1` [Compound 8, 6-(2-hydroxy-2-methylpropoxy)-4-(6-((6-(2-oxopyrrolidin-1-yl)pyridin-3-yl)methylamino)pyridine-3-yl)pyrazolo[1,5-a]pyridine-3-carbonitrile] came in with a GI50 on Ba/F3-KIF5B-RET cell of 68.5 nM. Also, the IC50 at VEGFR2 was 170 nM; on RET, 9.4 nM.
The like results for `CC(C)(O)COc1cc(-c2ccc(NCc3ccc(-c4cccnc4)nc3)nc2)c2c(C#N)cnn2c1` [Compound 9, 4-(6-(([2,3′-bipyridyl]-5-ylmethyl)amino)pyridin-3-yl)-6-(2-hydroxy-2-methylpropoxy)pyrazole[1,5-a]pyridine-3-carbonitrile] were, in that order, 145 nM, 116 nM and 19.6 nM.
The like results for `CC(C)(O)COc1cc(-c2ccc(NCc3ccc(N4CCCC4)nc3)nc2)c2c(C#N)cnn2c1` [Compound 10, 6-(2-hydroxy-2-methylpropoxy)-4-(6-(((6-(pyrrolidin-1-yl)pyridin-3-yl)methyl)amino)pyridine-3-yl)pyrazo[1,5-a]pyridine-3-carbonitrile] were, in that order, 7.3 nM, 90.8 nM and 2.08 nM.
On Ba/F3-KIF5B-RET cell, `Cc1cn(-c2ccc(CNc3ccc(-c4cc(OCC(C)(C)O)cn5ncc(C#N)c45)cn3)cn2)cn1` [Compound 11] displayed a GI50 of 613 nM. Moreover, the IC50 was 110 nM at VEGFR2 and 12.5 nM at RET.
As to `CC(C)(O)COc1cc(-c2ccc(NCc3ccc(N4CCOCC4)nc3)nc2)c2c(C#N)cnn2c1` [Compound 12], at Ba/F3-KIF5B-RET cell, growth was halved (GI50) at 75.5 nM. The results for the IC50 at VEGFR2 and on RET were 107 nM and 12.8 nM, respectively.
The like results for `CC(C)(O)COc1cc(-c2ccc(NCc3ccc4cccnc4c3)nc2)c2c(C#N)cnn2c1` [Compound 13] were, in that order, 50.8 nM, 136 nM and 5.17 nM.
In the case of `C=CCOc1cc(-c2ccc(N(C)[C@@H](C)c3ccc(-n4cc(F)cn4)nc3)nc2)c2c(C#N)cnn2c1` [Compound 31, (S)-4-(6-((1-(6-(4-fluoro-1H-pyrazol-1-yl)pyridin-3-yl)ethyl)(methyl)amino)pyridine-3-yl)-6-allyloxypyrazolo[1,5-a]pyridine-3-carbonitrile], the IC50 was greater than 5000 nM at VEGFR2 and 269 nM on RET.
For `Cc1cnn(-c2ccc([C@H](C)N(C)c3ccc(-c4cc(OCC(C)(C)O)cn5ncc(C#N)c45)cn3)cn2)c1` [Compound 37], growth at Ba/F3-KIF5B-RET cell was halved (GI50) at 18.6 nM. Further, the IC50 on VEGFR2 turned out to be 270 nM.
For `COc1cc(-c2ccc(N(C)[C@@H](C)c3ccc(-n4cc(F)cn4)nc3)nc2)c2c(C#N)cnn2c1` [Compound 40, (S)-4-(6-((1-(6-(4-fluoro-1H-pyrazol-1-yl)pyridin-3-yl)ethyl)(methyl)amino)pyridine-3-yl)-6-methoxypyrazolo[1,5-a]pyridine-3-carbonitrile], the IC50 on VEGFR2 came to 48.3 nM; at RET, 0.83 nM.
In the same order, the values of `C[C@@H](c1ccc(-n2cc(F)cn2)nc1)N(C)c1ccc(-c2cc(OCCF)cn3ncc(C#N)c23)cn1` [Compound 41, (S)-4-(6-((1-(6-(4-fluoro-1H-pyrazol-1-yl)pyridin-3-yl)ethyl)(methyl)amino)pyridine-3-yl)-6-(2-fluoroethoxy)pyrazolo[1,5-a]pyridine-3-carbonitrile] are 49.7 nM and 0.34 nM.
The like results for `CCN(CC)c1ccc([C@H](C)N(C)c2ccc(-c3cc(OCC(C)(C)O)cn4ncc(C#N)c34)cn2)cn1` [Compound 42, (S)-4-(6-((1-(6-(diethylamino)pyridin-3-yl)ethyl)(methyl)amino)pyridin-3-yl)-6-(2-hydroxy-2-methylpropoxy)pyrazolo[1,5-a]pyridine-3-carbonitrile] were, in that order, 199 nM and 18 nM.
Regarding `C[C@@H](c1ccc(-n2cc(Cl)cn2)nc1)N(C)c1ccc(-c2cc(OCC(C)(C)O)cn3ncc(C#N)c23)cn1` [Compound 45, (S)-4-(6-((1-(6-(4-chloro-1H-pyrazol-1-yl)pyridin-3-yl)ethyl)(methyl)amino)pyridine-3-yl)-6-(2-hydroxy-2-methylpropoxy)pyrazo[1,5-a]pyridine-3-carbonitrile], the GI50 at Ba/F3-KIF5B-RET cell is 39.3 nM. Moreover, the IC50 at VEGFR2 is 1980 nM.
With `CNc1cc(-c2ccc(N(C)[C@@H](C)c3ccc(-n4cc(F)cn4)nc3)nc2)c2c(C#N)cnn2c1` [Compound 52, (S)-4-(6-((1-(6-(4-fluoro-1H-pyrazol-1-yl)pyridin-3-yl)ethyl)(methyl)amino)pyridine-3-yl)-6-(methylamino)pyrazolo[1,5-a]pyridine-3-carbonitrile], the IC50 was found to be 5.62 nM at VEGFR2 and 0.29 nM on RET.
In the same order, the values of `COCCOc1cc(-c2ccc(N(C)[C@@H](C)c3ccc(-n4cc(F)cn4)nc3)nc2)c2c(C#N)cnn2c1` [Compound 54, (S)-4-(6-((1-(6-(4-fluoro-1H-pyrazol-1-yl)pyridin-3-yl)ethyl)(methyl)amino)pyridine-3-yl)-6-(2-methoxyethoxy)pyrazolo[1,5-a]pyridine-3-carbonitrile] are 21.1 nM and 0.3 nM.
In the same order, the values of `C[C@@H](c1ccc(-n2cc(F)cn2)nc1)N(C)c1ccc(-c2cc(N3CCCC3)cn3ncc(C#N)c23)cn1` [Compound 59] are 64.3 nM and 3.49 nM.
In the same order, the values of `Cc1ccc([C@H](C)N(C)c2ccc(-c3cc(OCC(C)(C)O)cn4ncc(C#N)c34)cn2)cn1` [Compound 63] are 361 nM and 4.56 nM.
In the case of `C#Cc1cc(-c2ccc(N(C)[C@@H](C)c3ccc(-n4cc(F)cn4)nc3)nc2)c2c(C#N)cnn2c1` [Compound 65], the IC50 worked out at 780 nM at VEGFR2 and 2.66 nM on RET.
In the same order, the values of `CCc1cc(-c2ccc(N(C)[C@@H](C)c3ccc(-n4cc(F)cn4)nc3)nc2)c2c(C#N)cnn2c1` [Compound 66] are 241 nM and 4.35 nM.

The record behind these values is patent US12552785B2, “Pyrazolo[1,5-α]pyridine derivative, preparation method therefor, and composition and use thereof” (SHENZHEN ZHONGGE BIOLOGICAL TECHNOLOGY CO., LTD., priority 2020, dated 2026).
